From patent US10513694B2, “Thienopyrrole compounds and uses thereof” (PROMEGA CORPORATION, priority 2015, dated 2019)

Molecular target: NANOLUC® enzyme (Oplophorus gracilirostris, UniProt Q9GV45, A31E/A60N/A81I/F95D/I117V/K70R/L54V/L99Q/M102K/N193R/P142E/Q151K/Q38R/Q45L/V71I/Y165I)
Experiment: Inhibitor IC50 determination (NANOLUC enzyme, furimazine)
Assay type: biochemical
Details: IC50 (uM), 0.4 ng/ml NANOLUC enzyme, final furimazine 10 uM (at Km)
Protocol: The following example provides the IC50 values for the compounds disclosed herein. See Table 5 NANOLUC® enzyme was diluted to 0.4 ng/ml in CO2 independent media+10% FBS to make the detection reagent. A 3× dilution series of each inhibitor was then made in the detection reagent. A “no inhibitor” control was also made for each sample. 50 ul of each inhibitor dilution was mixed with 50 ul of NanoGlo buffer containing 20 uM furimazine. (Final furimazine concentration is 10 uM which is at Km.), and luminescence measured. Each sample was normalized to the “no inhibitor” control. The […] values were then determined using GraphPad Prism (log [inhibitor] vs. normalized response).

Chain of NANOLUC® enzyme (Q9GV45 28-196 with tags or gaps with the stated changes limits assumed): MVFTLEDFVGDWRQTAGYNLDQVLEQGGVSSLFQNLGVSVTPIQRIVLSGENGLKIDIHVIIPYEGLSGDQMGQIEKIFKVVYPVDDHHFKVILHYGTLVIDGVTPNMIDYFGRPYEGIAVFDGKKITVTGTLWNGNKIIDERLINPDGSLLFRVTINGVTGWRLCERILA

CCN(C(=O)Cn1c(C(=O)N[C@H]2CC[C@H](C(=O)O)CC2)cc2sccc21)c1cccc(C)c1 [JRW-0034, trans-4-(4-(2-(ethyl(m-tolyl)amino)-2-oxoethyl)-4H-thieno[3,2-b]pyrrole-5-carboxamido)cyclohexane-1-carboxylic acid]
IC50: 0.059 µM

CCN(C(=O)Cn1c(C(=O)N[C@H]2CC[C@H](C(=O)NCCCCCC(=O)OC)CC2)cc2sccc21)c1cccc(C)c1 [JRW-0145, methyl 6-(trans-4-(4-(2-(ethyl(m-tolyl)amino)-2-oxoethyl)-4H-thieno[3,2-b]pyrrole-5-carboxamido)cyclohexane-1-carboxamido)hexanoate]
IC50: 0.12 µM

CCN(C(=O)Cn1c(C(=O)N2CCCC2)cc2sccc21)c1cccc(C)c1 [JRW-0008, N-ethyl-2-(5-(pyrrolidine-1-carbonyl)-4H-thieno[3,2-b]pyrrol-4-yl)-N-(m-tolyl)acetamide]
IC50: 1.1 µM

CCN(C(=O)Cn1c(C(=O)N[C@H]2CC[C@H](C(=O)OC)CC2)cc2sccc21)c1ccccc1 [JRW-0318, Methyl trans-4-(4-(2-(ethyl(phenyl)amino)-2-oxoethyl)-4H-thieno[3,2-b]pyrrole-5-carboxamido)cyclohexane-1-carboxylate]
IC50: 0.11 µM

CCN(C(=O)Cn1c(C(=O)N[C@H]2CC[C@H](C(=O)OC)CC2)cc2ccccc21)c1cccc(C)c1 [JRW-0355, Methyl trans-4-(1-(2-(ethyl(m-tolyl)amino)-2-oxoethyl)-1H-indole-2-carboxamido)cyclohexane-1-carboxylate]
IC50: 0.052 µM

CCN(C(=O)Cn1c(C(=O)N[C@H]2CC[C@H](C(=O)NCCN(C)C)CC2)cc2sccc21)c1cccc(C)c1 [JRW-0044, N-(trans-4-((2-(dimethylamino)ethyl)carbamoyl)cyclohexyl)-4-(2-(ethyl(m-tolyl)amino)-2-oxoethyl)-4H-thieno[3,2-b]pyrrole-5-carboxamide]
IC50: 16.8 µM

CCN(C(=O)Cn1c(C(=O)N[C@H]2CC[C@H](C(=O)N[C@H]3CC[C@H](C(=O)OC)CC3)CC2)cc2sccc21)c1cccc(C)c1 [JRW-0243, methyl-trans-4-(trans-4-(4-(2-(ethyl(m-tolyl)amino)-2-oxoethyl)-4H-thieno[3,2-b]pyrrole-5-carboxamido)cyclohexane-1-carboxamido)cyclohexane-1-carboxylate]
IC50: 0.21 µM

CCN(C(=O)Cn1c(C(=O)N[C@H]2CC[C@H](C(=O)OC)CC2)cc2occc21)c1cccc(C)c1 [JRW-360, Methyl trans-4-(4-(2-(ethyl(m-tolyl)amino)-2-oxoethyl)-4H-furo[3,2-b]pyrrole-5-carboxamido)cyclohexane-1-carboxylate]
IC50: 0.61 µM

CCc1cccc(N(CC)C(=O)Cn2c(C(=O)N[C@H]3CC[C@H](C(=O)NCCCCCCO)CC3)cc3ccccc32)c1 [JRW-0430, 1-(2-(Ethyl(3-ethylphenyl)amino)-2-oxoethyl)-N-(trans-4-((6-hydroxyhexyl)carbamoyl)cyclohexyl)-1H-indole-2-carboxamide]
IC50: 0.0021 µM

CCN(C(=O)Cn1c(C(=O)N[C@H]2CC[C@H](C(=O)OC)CC2)cc2sccc21)c1cccc(N(C)C)c1 [JRW-0478, Methyl trans-4-(4-(2-((3-(dimethylamino)phenyl)(ethyl)amino)-2-oxoethyl)-4H-thieno[3,2-b]pyrrole-5-carboxamido)cyclohexane-1-carboxylate]
IC50: 0.065 µM

CCN(C(=O)Cn1c(C(=O)N[C@H]2CC[C@H](C(=O)OC)CC2)cc2sccc21)c1cccc(CC(C)C)c1 [JRW-0508, Methyl trans-4-(4-(2-(ethyl(3-isobutylphenyl)amino)-2-oxoethyl)-4H-thieno[3,2-b]pyrrole-5-carboxamido)cyclohexane-1-carboxylate]
IC50: 0.027 µM

CCN(C(=O)Cn1c(C(=O)NC[C@H]2CC[C@H](C(=O)NCCCCCC(=O)O)CC2)cc2sccc21)c1cccc(C)c1 [JRW-0268, 6-(trans-4-((4-(2-(ethyl(m-tolyl)amino)-2-oxoethyl)-4H-thieno[3,2-b]pyrrole-5-carboxamido)methyl)cyclohexane-1-carboxamido)hexanoic acid]
IC50: 4.3 µM

CCN(C(=O)Cn1cccc1C(=O)N[C@H]1CC[C@H](C(=O)OC)CC1)c1cccc(C)c1 [JRW-0456, Methyl trans-4-(1-(2-(ethyl(m-tolyl)amino)-2-oxoethyl)-1H-pyrrole-2-carboxamido)cyclohexane-1-carboxylate]
IC50: 7.4 µM

CCN(C(=O)Cn1c(C(=O)N[C@H]2CC[C@H](C(=O)NCCCCCCO)CC2)cc2sccc21)c1cccc(C)c1 [JRW-0242, 4-(2-(ethyl(m-tolyl)amino)-2-oxoethyl)-N-(trans-4-((6-hydroxyhexyl)carbamoyl)cyclohexyl)-4H-thieno[3,2-b]pyrrole-5-carboxamide]
IC50: 0.035 µM

COC(=O)[C@H]1CC[C@H](NC(=O)c2cc3sccc3n2CC(=O)N2CCCc3cc(C)ccc32)CC1 [JRW-0331, Methyl trans-4-(4-(2-(6-methyl-3,4-dihydroquinolin-1(2H)-yl)-2-oxoethyl)-4H-thieno[3,2-b]pyrrole-5-carboxamido)cyclohexane-1-carboxylate]
IC50: 16.9 µM

CCc1cccc(N(CC)C(=O)Cn2c(C(=O)N[C@H]3CC[C@H](C(=O)OC)CC3)cc3ccccc32)c1 [JRW-0424, Methyl trans-4-(1-(2-(ethyl(3-ethylphenyl)amino)-2-oxoethyl)-1H-indole-2-carboxamido)cyclohexane-1-carboxylate]
IC50: 0.005 µM

CCN(C(=O)Cn1c(C(=O)N[C@H]2CC[C@H](C(=O)NCCCCCCCC(=O)O)CC2)cc2sccc21)c1cccc(C)c1 [JRW-0188, 8-(trans-4-(4-(2-(ethyl(m-tolyl)amino)-2-oxoethyl)-4H-thieno[3,2-b]pyrrole-5-carboxamido)cyclohexane-1-carboxamido)octanoic acid]
IC50: 0.022 µM

CCN(C(=O)Cn1c(C(=O)N[C@H]2CC[C@H](C(=O)OC)CC2)cc2sccc21)c1cccc(CO)c1 [JRW-0461, Methyl trans-4-(4-(2-(ethyl(3-(hydroxymethyl)phenyl)amino)-2-oxoethyl)-4H-thieno[3,2-b]pyrrole-5-carboxamido)cyclohexane-1-carboxylate]
IC50: 0.077 µM

CCN(C(=O)Cn1c(C(=O)N[C@H]2CC[C@H](C(=O)OC)CC2)cc2sccc21)c1cccc(C#N)c1 [JRW-0321, Methyl trans-4-(4-(2-((3-cyanophenyl)(ethyl)amino)-2-oxoethyl)-4H-thieno[3,2-b]pyrrole-5-carboxamido)cyclohexane-1-carboxylate]
IC50: 0.16 µM

CCN(C(=O)Cn1c(C(=O)N[C@H]2CC[C@H](C(=O)OC)CC2)cc2sccc21)c1ccccc1C [JRW-0330, Methyl trans-4-(4-(2-(ethyl(o-tolyl)amino)-2-oxoethyl)-4H-thieno[3,2-b]pyrrole-5-carboxamido)cyclohexane-1-carboxylate]
IC50: 0.7 µM

COCCOCCN(C(=O)Cn1c(C(=O)N[C@H]2CC[C@H](C(=O)OC)CC2)cc2sccc21)c1cccc(C)c1 [JRW-0110, Methyl-trans-4-(4-(2-((2-(2-methoxyethoxy)ethyl)(m-tolyl)amino)-2-oxoethyl)-4H-thieno[3,2-b]pyrrole-5-carboxamido)cyclohexane-1-carboxylate]
IC50: 3 µM
